In PubChem BioAssay AID330 (DTP/NCI, 2004):
Values joined by “and” are separate entries in the source; they are usually repeats but may differ in a detail not shown here. Identical values can stand only once. Toxic doses and inconclusive results are not listed.

Test system: P388 leukemia ip, CD2F1 mice, survival T/C
Assay: NCI In Vivo Anticancer Drug Screen. Data for tumor model P388 Leukemia (intraperitoneal) in CD2F1 (CDF1) mice
Conditions: endpoint: median survival time, higher = longer survival
How it was run: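 Mice carrying the transplanted tumor received test compound or vehicle. Survival was recorded in each group, and the value is the treated-group measurement divided by that of the vehicle-treated control group.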

Nc1nc(Br)nc2c1ncn2C1CC(O)C(CO)O1 (centres undefined)
T/C (dose: 1.5 mg/kg/injection, schedule: Q01DX005 (ip), vehicle: suspension in saline): 118 % of control | T/C (dose: 3.0 mg/kg/injection, schedule: Q01DX005 (ip), vehicle: suspension in saline): 121 % of control | T/C (dose: 15.0 mg/kg/injection, schedule: Q01DX005 (ip), vehicle: suspension in saline): 108 % of control | T/C (dose: 15.0 mg/kg/injection, schedule: Q03HX009 (ip), vehicle: saline): 153 % of control and 155 % of control | T/C (dose: 30.0 mg/kg/injection, schedule: Q03HX009 (ip), vehicle: saline with Tween-80): 164 % of control | T/C (dose: 30.0 mg/kg/injection, schedule: Q03HX009 (ip), vehicle: saline): 167 % of control and 181 % of control | T/C (dose: 60.0 mg/kg/injection, schedule: Q01DX005 (ip), vehicle: suspension in saline): 117 % of control | T/C (dose: 60.0 mg/kg/injection, schedule: Q03HX009 (ip), vehicle: saline with Tween-80): 155 % of control | T/C (dose: 60.0 mg/kg/injection, schedule: Q03HX009 (ip), vehicle: saline): 165 % of control and 172 % of control | T/C (dose: 120.0 mg/kg/injection, schedule: Q01DX005 (ip), vehicle: suspension in saline): 122 % of control | T/C (dose: 120.0 mg/kg/injection, schedule: Q03HX009 (ip), vehicle: saline with Tween-80): 157 % of control | T/C (dose: 120.0 mg/kg/injection, schedule: Q03HX009 (ip), vehicle: saline): 172 % of control

CN(C)CCSc1n[nH]c(=O)[nH]c1=O
T/C (dose: 25.0 mg/kg/injection, schedule: Q01DX005 (ip), vehicle: distilled water + alcohol): 101 % of control | T/C (dose: 50.0 mg/kg/injection, schedule: Q01DX005 (ip), vehicle: distilled water + alcohol): 95 % of control | T/C (dose: 100.0 mg/kg/injection, schedule: Q01DX005 (ip), vehicle: distilled water + alcohol): 100 % of control | T/C (dose: 200.0 mg/kg/injection, schedule: Q01DX005 (ip), vehicle: distilled water + alcohol): 96 % of control

COc1ccc(C2CC(=O)c3c(O)cc(OC4OC(CO)C(O)C(O)C4OC4OC(C)C(O)C(O)C4O)cc3O2)cc1O (centres undefined)
T/C (dose: 50.0 mg/kg/injection, schedule: Q01DX005 (ip), vehicle: saline with Tween-80): 102 % of control | T/C (dose: 100.0 mg/kg/injection, schedule: Q01DX005 (ip), vehicle: saline with Tween-80): 100 % of control | T/C (dose: 200.0 mg/kg/injection, schedule: Q01DX005 (ip), vehicle: saline with Tween-80): 92 % of control

COC(CNC(c1ccccc1)C(O)c1ccccc1)(OC)OC (centres undefined)
T/C (dose: 100.0 mg/kg/injection, schedule: Q01DX001 (ip), vehicle: saline with Tween-80): 97 % of control | T/C (dose: 200.0 mg/kg/injection, schedule: Q01DX001 (ip), vehicle: saline with Tween-80): 97 % of control | T/C (dose: 400.0 mg/kg/injection, schedule: Q01DX001 (ip), vehicle: saline with Tween-80): 97 % of control

CC(=O)CC(C)=NCC(C)N=C(C)CC(C)=O (centres undefined)
T/C (dose: 100.0 mg/kg/injection, schedule: Q04DX003 (ip), vehicle: saline): 100 % of control | T/C (dose: 200.0 mg/kg/injection, schedule: Q04DX003 (ip), vehicle: saline): 100 % of control | T/C (dose: 400.0 mg/kg/injection, schedule: Q04DX003 (ip), vehicle: saline): 100 % of control

CC(=O)CCC1=C(C)C(=O)C(=O)C(C)=C1O
T/C (dose: 60.0 mg/kg/injection, schedule: Q01DX005 (ip), vehicle: Klucel (hydroxypropylcellulose) (HPC)): 96 % of control | T/C (dose: 120.0 mg/kg/injection, schedule: Q01DX005 (ip), vehicle: Klucel (hydroxypropylcellulose) (HPC)): 98 % of control

C=C1C(=O)C23CC1CC(O)C2C12COC(O)C1C(C)(C)CCC2OC3=O (centres undefined)
T/C (dose: 1.25 mg/kg/injection, schedule: Q01DX009 (ip), vehicle: saline with Tween-80): 108 % of control | T/C (dose: 2.5 mg/kg/injection, schedule: Q01DX009 (ip), vehicle: saline with Tween-80): 99 % of control | T/C (dose: 5.0 mg/kg/injection, schedule: Q01DX009 (ip), vehicle: saline with Tween-80): 102 % of control and 120 % of control | T/C (dose: 10.0 mg/kg/injection, schedule: Q01DX009 (ip), vehicle: saline with Tween-80): 106 % of control and 115 % of control | T/C (dose: 20.0 mg/kg/injection, schedule: Q01DX009 (ip), vehicle: saline with Tween-80): 116 % of control and 118 % of control | T/C (dose: 40.0 mg/kg/injection, schedule: Q01DX009 (ip), vehicle: saline with Tween-80): 118 % of control and 124 % of control | T/C (dose: 80.0 mg/kg/injection, schedule: Q01DX009 (ip), vehicle: saline with Tween-80): 89 % of control

COC(=O)c1cc2cccn2cn1
T/C (dose: 12.5 mg/kg/injection, schedule: Q01DX009 (ip), vehicle: saline with Tween-80): 115 % of control | T/C (dose: 25.0 mg/kg/injection, schedule: Q01DX009 (ip), vehicle: saline with Tween-80): 115 % of control | T/C (dose: 50.0 mg/kg/injection, schedule: Q01DX009 (ip), vehicle: saline with Tween-80): 104 % of control | T/C (dose: 100.0 mg/kg/injection, schedule: Q01DX009 (ip), vehicle: saline with Tween-80): 91 % of control | T/C (dose: 200.0 mg/kg/injection, schedule: Q01DX009 (ip), vehicle: saline with Tween-80): 100 % of control
